Results published in PubChem BioAssay AID1963981 (Molecular Pharmacology Branch, DTP, NCI, 2024).
Values joined by “and” are separate entries in the source; they are usually repeats but may differ in a detail not shown here. Equal values may be shown once.

Tested on: 354836-022-R-J1-PDC multicell spheroid viability
Assay: Anticancer human tumor 354836-022-R-J1-PDC patient-derived head and neck squamous cell carcinoma cell line growth inhibition [PI3K]
Conditions: for viability, T/C: stronger effect = lower value
Excerpt: Combinatorial screen of targeted agents with the PI3K inhibitors inavolisib, alpelisib, duvelisib, and copanlisib in multi-cell type tumor spheroids
A high-throughput screen of multi-cell type tumor spheroids was designed to identify active combinations of targeted small molecules and PI3K pathway inhibitors. Complex spheroids include a stromal component modeled by human endothelial cells (HUVEC) and fibroblasts modeled by human mesenchymal stem cells (MSCs). The concentration ranges selected for each drug and investigational agent were based upon clinically achievable concentrations if the clinical Cmax of the agent was known.
Compounds. The drugs and investigational agents: inavolisib (NSC800729), alpelisib (NSC765974), duvelisib (NSC772469), copanlisib (NSC816437), ipatasertib (NSC767898), afuresertib (NSC778305), talazoparib (NSC767125), sapanisertib (NSC764658), selumetinib (NSC741078), tovorafenib (DAY101, NSC766906), vemurafenib (NSC761431), ravoxertinib (NSC781343), sotorasib (NSC818433), MRTX1133 (NSC 836407), abemaciclib (NSC 768073), palbociclib (NSC758247), venetoclax (NSC 766270), SY5609 (NSC837396), enzalutamide (NSC755605), and darolutamide (NSC825331), were obtained from the National Cancer Institute (NCI) Developmental Therapeutics Program Chemical Repository. The FDA-approved anticancer drug set is available from the NCI Developmental Therapeutics Program. […] The stock solutions were prepared in dimethyl sulfoxide (DMSO, Sigma-Aldrich, St. Louis, MO, cat. D2650) at 800-fold the tested concentration and stored at -70 degrees C prior to their use. All drugs and investigational agents were tested over a range starting from a high concentration at or near the clinical Cmax and decreasing in half-log increments. If the clinical Cmax for an agent had not been determined, the highest concentration tested was 10 microM.
Cell Culture. All cells were maintained in an incubator at 37 degrees C and 5% CO2 with 95% humidity. The PDC lines were cultured according to standard operating procedures established by the NCI PDMR (https://pdmr.cancer.gov/sops/default.htm). All PDCs were thawed and cultured in Matrigel-coated flasks prepared with a working solution of 1X Ham's F-12 nutrient mix, without supplementation (Invitrogen, Waltham, MA, cat. 11765054), 100 U/mL penicillin-streptomycin (Invitrogen, cat. 15140122), and 2.5% Matrigel (Corning Inc., Corning, NY, cat. 354248) for the first three passages. The 354836-022-R-J1-PDC, 475296-252-R-J1-PDC, and 997726-040-R-J2-PDC lines were cultured in 6A media, which includes advanced DMEM/F-12 (Thermo Fisher Scientific, cat. 12634028), 10 mM HEPES (Thermo Fisher Scientific, cat. 15630080), 1X GlutaMAX supplement (Thermo Fisher Scientific, cat. 35050061), 0.1 mg/mL primocin (InvivoGen, San Diego, CA, cat. ant-pm-2), 10% defined fetal bovine serum, heat inactivated (HyClone Laboratories Inc., Logan, UT, cat. SH30070.03HI), 50% L-WRN conditioned media (ATCC, cat. CRL-3276), 1.25 mM N-Acetyl-L-cysteine (Sigma-Aldrich, cat. A9165), 10 mM nicotinamide (Sigma-Aldrich, cat. N0636), 1X B-27 supplement (Thermo Fisher Scientific, cat. 17504044), 1X N-2 supplement (Thermo Fisher Scientific, cat. 17502048), and 10 microM Y-27632 dihydrochloride (Tocris Bioscience, Bristol, United Kingdom, cat. 1254). The 624824-186-R-J2-PDC line was cultured in 6C/Colon 1B media, which includes all 6A media components plus 50 ng/mL human EGF recombinant protein (Thermo Fisher Scientific, cat. PHG0311). […]

[1] = curve of first compound, second compound 0.00316 µM
[2] = curve of first compound, second compound 0.01 µM
[3] = curve of first compound, second compound 0.0316 µM
[4] = curve of first compound, second compound 0.1 µM
[5] = curve of first compound, second compound 0.316 µM
[6] = curve of first compound, second compound 1 µM
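Also: spheroids exposed to agents for seven days before the viability read.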

## C#Cc1c(F)ccc2cc(O)cc(-c3ncc4c(N5CC6CCC(C5)N6)nc(OCC56CCCN5CC(F)C6)nc4c3F)c12 (stereo unspecified) + CC(Nc1ccc2c(c1)OCCn1cc(N3C(=O)OCC3C(F)F)nc1-2)C(N)=O
[1]
  IC50: > 10000 nM
[2]
  IC50: > 10000 nM
[3]
  IC50: > 10000 nM
[4]
  IC50: > 10000 nM
[5]
  IC50: > 10000 nM
[6]
  IC50: > 10000 nM
Second compound 0.00316 µM, first compound 0.0316 µM
  viability, T/C: 106%
Second compound 0.00316 µM, first compound 0.1 µM
  viability, T/C: 78%
Second compound 0.00316 µM, first compound 0.316 µM
  viability, T/C: 96.6%
Second compound 0.00316 µM, first compound 1 µM
  viability, T/C: 92.7%
Second compound 0.00316 µM, first compound 3.16 µM
  viability, T/C: 97.4%
Second compound 0.00316 µM, first compound 10 µM
  viability, T/C: 99.1%
Second compound 0.01 µM, first compound 0.0316 µM
  viability, T/C: 97.5%
Second compound 0.01 µM, first compound 0.1 µM
  viability, T/C: 98.9%
Second compound 0.01 µM, first compound 0.316 µM
  viability, T/C: 93.4%
Second compound 0.01 µM, first compound 1 µM
  viability, T/C: 96.4%
Second compound 0.01 µM, first compound 3.16 µM
  viability, T/C: 103%
Second compound 0.01 µM, first compound 10 µM
  viability, T/C: 99%
Second compound 0.0316 µM, first compound 0.0316 µM
  viability, T/C: 87.3%
Second compound 0.0316 µM, first compound 0.1 µM
  viability, T/C: 108%
Second compound 0.0316 µM, first compound 0.316 µM
  viability, T/C: 80.9%
Second compound 0.0316 µM, first compound 1 µM
  viability, T/C: 95.5%
Second compound 0.0316 µM, first compound 3.16 µM
  viability, T/C: 97.8%
Second compound 0.0316 µM, first compound 10 µM
  viability, T/C: 92.9%
Second compound 0.1 µM, first compound 0.0316 µM
  viability, T/C: 78.7%
Second compound 0.1 µM, first compound 0.1 µM
  viability, T/C: 103%
Second compound 0.1 µM, first compound 0.316 µM
  viability, T/C: 78.1%
Second compound 0.1 µM, first compound 1 µM
  viability, T/C: 92.4%
Second compound 0.1 µM, first compound 3.16 µM
  viability, T/C: 88.8%
Second compound 0.1 µM, first compound 10 µM
  viability, T/C: 71.8%
Second compound 0.316 µM, first compound 0.0316 µM
  viability, T/C: 70.8%
Second compound 0.316 µM, first compound 0.1 µM
  viability, T/C: 89.1%
Second compound 0.316 µM, first compound 0.316 µM
  viability, T/C: 79.5%
Second compound 0.316 µM, first compound 1 µM
  viability, T/C: 79.7%
Second compound 0.316 µM, first compound 3.16 µM
  viability, T/C: 83.5%
Second compound 0.316 µM, first compound 10 µM
  viability, T/C: 61.9%
Second compound 1 µM, first compound 0.0316 µM
  viability, T/C: 70.2%
Second compound 1 µM, first compound 0.1 µM
  viability, T/C: 56.8%
Second compound 1 µM, first compound 0.316 µM
  viability, T/C: 55.9%
Second compound 1 µM, first compound 1 µM
  viability, T/C: 59.7%
Second compound 1 µM, first compound 3.16 µM
  viability, T/C: 57.2%
Second compound 1 µM, first compound 10 µM
  viability, T/C: 54%

## Cn1cnc2c(F)c(Nc3ccc(Br)cc3Cl)c(C(=O)NOCCO)cc21 + COc1c(OCCCN2CCOCC2)ccc2c3n(c(=NC(=O)c4cnc(N)nc4)nc12)CCN3
[1]
  IC50: > 3000 nM
[2]
  IC50: > 3000 nM
[3]
  IC50: 1860 nM
[4]
  IC50: < 9.49 nM
[5]
  IC50: < 9.49 nM
[6]
  IC50: < 9.49 nM
Second compound 0.00316 µM, first compound 0.00949 µM
  viability, T/C: 107%
Second compound 0.00316 µM, first compound 0.03 µM
  viability, T/C: 86.2%
Second compound 0.00316 µM, first compound 0.0949 µM
  viability, T/C: 89.4%
Second compound 0.00316 µM, first compound 0.3 µM
  viability, T/C: 96.6%
Second compound 0.00316 µM, first compound 0.949 µM
  viability, T/C: 75.5%
Second compound 0.00316 µM, first compound 3 µM
  viability, T/C: 58%
Second compound 0.01 µM, first compound 0.00949 µM
  viability, T/C: 83.3%
Second compound 0.01 µM, first compound 0.03 µM
  viability, T/C: 84.6%
Second compound 0.01 µM, first compound 0.0949 µM
  viability, T/C: 78.3%
Second compound 0.01 µM, first compound 0.3 µM
  viability, T/C: 89.2%
Second compound 0.01 µM, first compound 0.949 µM
  viability, T/C: 75.4%
Second compound 0.01 µM, first compound 3 µM
  viability, T/C: 60.7%
Second compound 0.0316 µM, first compound 0.00949 µM
  viability, T/C: 81.2%
Second compound 0.0316 µM, first compound 0.03 µM
  viability, T/C: 80%
Second compound 0.0316 µM, first compound 0.0949 µM
  viability, T/C: 67.8%
Second compound 0.0316 µM, first compound 0.3 µM
  viability, T/C: 66.9%
Second compound 0.0316 µM, first compound 0.949 µM
  viability, T/C: 66.3%
Second compound 0.0316 µM, first compound 3 µM
  viability, T/C: 41%
Second compound 0.1 µM, first compound 0.00949 µM
  viability, T/C: 43.8%
Second compound 0.1 µM, first compound 0.03 µM
  viability, T/C: 48.6%
Second compound 0.1 µM, first compound 0.0949 µM
  viability, T/C: 38.3%
Second compound 0.1 µM, first compound 0.3 µM
  viability, T/C: 41.9%
Second compound 0.1 µM, first compound 0.949 µM
  viability, T/C: 31.2%
Second compound 0.1 µM, first compound 3 µM
  viability, T/C: 15.2%
Second compound 0.316 µM, first compound 0.00949 µM
  viability, T/C: 12.7%
Second compound 0.316 µM, first compound 0.03 µM
  viability, T/C: 9.02%
Second compound 0.316 µM, first compound 0.0949 µM
  viability, T/C: 11%
Second compound 0.316 µM, first compound 0.3 µM
  viability, T/C: 9.87%
Second compound 0.316 µM, first compound 0.949 µM
  viability, T/C: 5.57%
Second compound 0.316 µM, first compound 3 µM
  viability, T/C: 1.48%
Second compound 1 µM, first compound 0.00949 µM
  viability, T/C: 1.58%
Second compound 1 µM, first compound 0.03 µM
  viability, T/C: 1.2%
Second compound 1 µM, first compound 0.0949 µM
  viability, T/C: 1.03%
Second compound 1 µM, first compound 0.3 µM
  viability, T/C: 1.25%
Second compound 1 µM, first compound 0.949 µM
  viability, T/C: 0.64%
Second compound 1 µM, first compound 3 µM
  viability, T/C: 0.57%

## CC(C)n1nc(-c2ccc3oc(N)nc3c2)c2c(N)ncnc21
Compound 0.000316 µM
  viability, T/C: 92.8% [middle of 4 runs]
Compound 0.001 µM
  viability, T/C: 84.9% [middle of 4 runs]
Compound 0.00316 µM
  viability, T/C: 78.9% [middle of 4 runs]
Compound 0.01 µM
  viability, T/C: 52% [middle of 4 runs]
Compound 0.0316 µM
  viability, T/C: 28.9% [middle of 4 runs]
Compound 0.1 µM
  viability, T/C: 11.4% [middle of 4 runs]
Curve of compound
  IC50: 9.59 nM and 12 nM and 11.8 nM
